Test system: 922993-354-T-J3-PDC complex spheroid viability
Assay: Anticancer human tumor 922993-354-T-J3-PDC patient-derived endometrial carcinoma cell line growth inhibition [POLQ]
Conditions: for IC50: curve of first compound; for viability, T/C: stronger effect = lower value
Procedure, shortened: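 Growth inhibition in 3D: complex spheroids (tumor PDC, HUVEC, MSC) treated with POLQ inhibitor combinations; where Cmax unknown, highest tested concentration 10 microM, except SN-38 at 1 microM.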

[1] = second compound 0.0316 µM, first compound 0.0316 µM
[2] = second compound 0.0316 µM, first compound 0.1 µM
[3] = second compound 0.0316 µM, first compound 0.316 µM
[4] = second compound 0.0316 µM, first compound 1 µM
[5] = second compound 0.0316 µM, first compound 3.16 µM
[6] = second compound 0.0316 µM, first compound 10 µM
[7] = second compound 0.1 µM, first compound 0.0316 µM
[8] = second compound 0.1 µM, first compound 0.1 µM
[9] = second compound 0.1 µM, first compound 0.316 µM
[10] = second compound 0.1 µM, first compound 1 µM
[11] = second compound 0.1 µM, first compound 3.16 µM
[12] = second compound 0.1 µM, first compound 10 µM
[13] = second compound 0.316 µM, first compound 0.0316 µM
[14] = second compound 0.316 µM, first compound 0.1 µM
[15] = second compound 0.316 µM, first compound 0.316 µM
[16] = second compound 0.316 µM, first compound 1 µM
[17] = second compound 0.316 µM, first compound 3.16 µM
[18] = second compound 0.316 µM, first compound 10 µM
[19] = second compound 1 µM, first compound 0.0316 µM
[20] = second compound 1 µM, first compound 0.1 µM
[21] = second compound 1 µM, first compound 0.316 µM
[22] = second compound 1 µM, first compound 1 µM
[23] = second compound 1 µM, first compound 3.16 µM
[24] = second compound 1 µM, first compound 10 µM
[25] = second compound 3.16 µM, first compound 0.0316 µM
[26] = second compound 3.16 µM, first compound 0.1 µM
[27] = second compound 3.16 µM, first compound 0.316 µM
[28] = second compound 3.16 µM, first compound 1 µM
[29] = second compound 3.16 µM, first compound 3.16 µM
[30] = second compound 3.16 µM, first compound 10 µM
[31] = second compound 10 µM, first compound 0.0316 µM
[32] = second compound 10 µM, first compound 0.1 µM
[33] = second compound 10 µM, first compound 0.316 µM
[34] = second compound 10 µM, first compound 1 µM
[35] = second compound 10 µM, first compound 3.16 µM
[36] = second compound 10 µM, first compound 10 µM
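Further: spheroids exposed to the agents for one week.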
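Wherever viability, T/C is given: 100% = DMSO vehicle control wells.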

COc1cccc2c1C(=O)c1c(O)c3c(c(O)c1C2=O)CC(O)(C(=O)CO)CC3OC1CC(N)C(O)C(C)O1 (stereo unspecified) + COC1C(OC(N)=O)C(O)C(Oc2ccc3c(O)c(NC(=O)c4ccc(O)c(CC=C(C)C)c4)c(=O)oc3c2C)OC1(C)C
IC50 (second compound 0.0316 µM): 1350 nM | IC50 (second compound 0.1 µM): 997 nM | IC50 (second compound 0.316 µM): 1080 nM | IC50 (second compound 1 µM): 899 nM | IC50 (second compound 3.16 µM): 893 nM | IC50 (second compound 10 µM): 723 nM | viability, T/C [1]: 104% | viability, T/C [2]: 88.8% | viability, T/C [3]: 80.7% | viability, T/C [4]: 53.3% | viability, T/C [5]: 33.9% | viability, T/C [6]: 10.1% | viability, T/C [7]: 97.2% | viability, T/C [8]: 101% | viability, T/C [9]: 88.6% | viability, T/C [10]: 48% | viability, T/C [11]: 21.8% | viability, T/C [12]: 8.62% | viability, T/C [13]: 105% | viability, T/C [14]: 91.9% | viability, T/C [15]: 77.3% | viability, T/C [16]: 50.7% | viability, T/C [17]: 28.7% | viability, T/C [18]: 12.9% | viability, T/C [19]: 102% | viability, T/C [20]: 96.1% | viability, T/C [21]: 68.7% | viability, T/C [22]: 45.8% | viability, T/C [23]: 30.9% | viability, T/C [24]: 10.7% | viability, T/C [25]: 94.5% | viability, T/C [26]: 100% | viability, T/C [27]: 87.1% | viability, T/C [28]: 44.7% | viability, T/C [29]: 21.6% | viability, T/C [30]: 10.8% | viability, T/C [31]: 86.4% | viability, T/C [32]: 90.8% | viability, T/C [33]: 68.7% | viability, T/C [34]: 41.1% | viability, T/C [35]: 22.8% | viability, T/C [36]: 10.4%

Cn1ncnc1[C@H]1c2n[nH]c(=O)c3cc(F)cc(c23)N[C@@H]1c1ccc(F)cc1 + COC1C(OC(N)=O)C(O)C(Oc2ccc3c(O)c(NC(=O)c4ccc(O)c(CC=C(C)C)c4)c(=O)oc3c2C)OC1(C)C
IC50 (second compound 0.0316 µM): > 100 nM | IC50 (second compound 0.1 µM): > 100 nM | IC50 (second compound 0.316 µM): > 100 nM | IC50 (second compound 1 µM): > 100 nM | IC50 (second compound 3.16 µM): > 100 nM | IC50 (second compound 10 µM): > 100 nM | viability, T/C (second compound 0.0316 µM, first compound 0.000316 µM): 109% | viability, T/C (second compound 0.0316 µM, first compound 0.001 µM): 93.7% | viability, T/C (second compound 0.0316 µM, first compound 0.00316 µM): 98.5% | viability, T/C (second compound 0.0316 µM, first compound 0.01 µM): 104% | viability, T/C [1]: 91.8% | viability, T/C [2]: 74% | viability, T/C (second compound 0.1 µM, first compound 0.000316 µM): 107% | viability, T/C (second compound 0.1 µM, first compound 0.001 µM): 102% | viability, T/C (second compound 0.1 µM, first compound 0.00316 µM): 105% | viability, T/C (second compound 0.1 µM, first compound 0.01 µM): 99.9% | viability, T/C [7]: 96.8% | viability, T/C [8]: 79.8% | viability, T/C (second compound 0.316 µM, first compound 0.000316 µM): 108% | viability, T/C (second compound 0.316 µM, first compound 0.001 µM): 107% | viability, T/C (second compound 0.316 µM, first compound 0.00316 µM): 115% | viability, T/C (second compound 0.316 µM, first compound 0.01 µM): 98% | viability, T/C [13]: 96.6% | viability, T/C [14]: 86.1% | viability, T/C (second compound 1 µM, first compound 0.000316 µM): 105% | viability, T/C (second compound 1 µM, first compound 0.001 µM): 98.6% | viability, T/C (second compound 1 µM, first compound 0.00316 µM): 91.7% | viability, T/C (second compound 1 µM, first compound 0.01 µM): 105% | viability, T/C [19]: 94.6% | viability, T/C [20]: 84.5% | viability, T/C (second compound 3.16 µM, first compound 0.000316 µM): 93.7% | viability, T/C (second compound 3.16 µM, first compound 0.001 µM): 89.9% | viability, T/C (second compound 3.16 µM, first compound 0.00316 µM): 89.6% | viability, T/C (second compound 3.16 µM, first compound 0.01 µM): 86.3% | viability, T/C [25]: 102% | viability, T/C [26]: 79.4% | viability, T/C (second compound 10 µM, first compound 0.000316 µM): 88.6% | viability, T/C (second compound 10 µM, first compound 0.001 µM): 75.6% | viability, T/C (second compound 10 µM, first compound 0.00316 µM): 94.7% | viability, T/C (second compound 10 µM, first compound 0.01 µM): 85.7% | viability, T/C [31]: 87.1% | viability, T/C [32]: 70.7%

CCc1cc2c(N3CCc4c(cc(Cn5ccnc5)cc4-c4cn(C)nc4C(F)(F)F)C3=O)ccnc2c(OC)n1 + Nc1ccc(C#CCN(C(=O)Cc2ncc(C(F)(F)F)cc2C(F)(F)F)c2ccc(F)cc2)nn1
IC50 (second compound 0.0316 µM): > 10000 nM | IC50 (second compound 0.1 µM): > 10000 nM | IC50 (second compound 0.316 µM): > 10000 nM | IC50 (second compound 1 µM): > 10000 nM | IC50 (second compound 3.16 µM): > 10000 nM | IC50 (second compound 10 µM): > 10000 nM | viability, T/C [1]: 104% | viability, T/C [2]: 103% | viability, T/C [3]: 105% | viability, T/C [4]: 107% | viability, T/C [5]: 107% | viability, T/C [6]: 102% | viability, T/C [7]: 106% | viability, T/C [8]: 102% | viability, T/C [9]: 107% | viability, T/C [10]: 108% | viability, T/C [11]: 106% | viability, T/C [12]: 101% | viability, T/C [13]: 105% | viability, T/C [14]: 102% | viability, T/C [15]: 103% | viability, T/C [16]: 105% | viability, T/C [17]: 103% | viability, T/C [18]: 99.6% | viability, T/C [19]: 105% | viability, T/C [20]: 105% | viability, T/C [21]: 102% | viability, T/C [22]: 108% | viability, T/C [23]: 105% | viability, T/C [24]: 94.3% | viability, T/C [25]: 102% | viability, T/C [26]: 99.5% | viability, T/C [27]: 104% | viability, T/C [28]: 99% | viability, T/C [29]: 106% | viability, T/C [30]: 97.5% | viability, T/C [31]: 99.2% | viability, T/C [32]: 102% | viability, T/C [33]: 99.4% | viability, T/C [34]: 96.6% | viability, T/C [35]: 100% | viability, T/C [36]: 91%

Source: PubChem BioAssay AID1963830 (Molecular Pharmacology Branch, DTP, NCI, 2024)
